These results are taken from publication PMC5059489, “Mechanistic evaluation and transcriptional signature of a glutathione S-transferase omega 1 inhibitor” (Nature Communications, 2016).

One experiment relates to NCIADR Res. Nature of the experiment: MTT cytotoxicity GI50, NCI-ADR/Res. The class given is cell-based. Particulars: Homo sapiens, NCI/ADR-RES. The text has this:
Colon cancer cell line HCT116 was generously provided by Dr Bert Vogelstein, Johns Hopkins Medical Institutions, Baltimore, MD. Pancreatic cancer cell line Panc-1 was obtained from Dr Alan Epstein, University of Southern California. All other cell lines were purchased from the American Type Culture Collection (Manassas, VA). MDA-MB-435 cell line was used in the GSTO1 knockdown experiment as it had high GSTO1 expression (Supplementary Fig. 17). We also tested active compounds in NCI-ADR/Res cell line since GSTO1 is implicated in drug resistance. Cell lines were cultured in RPMI 1640 or […] supplemented with 10% fetal bovine serum at 37 °C in a humidified atmosphere of 5% CO2. All cell lines were maintained in culture under 30 passages and tested regularly for Mycoplasma contamination using PlasmoTest (InvivoGen, San Diego, CA, USA).
Cell proliferation was assessed by a MTT assay. Cancer cells were seeded in 96-well microtitre plates and, after overnight attachment, treated with GSTO1 inhibitors. After 72 h, MTT solution (3 mg ml^−1; 20 μl) was added to each well and cells were incubated for 3 h at 37 °C. After incubation, media from each well was removed and the dark blue formazan crystals formed by live cells were dissolved in DMSO (150 μl per well). The absorbance intensity was measured at 570 nm on a microplate reader (Molecular Devices, Sunnyvale, CA, USA). Cell viability after 24 h treatment was assessed using ApoTox-Glo triplex assay (Promega) according to the manufacturer's protocol. At least three independent dose–response experiments with each concentration tested in triplicate were performed for each cell line.

For the next experiment, the system named is THP-1 cells. Briefly: IL-1β secretion from LPS-primed THP-1 cells. Particulars: LPS-primed THP-1, 1.5 h, then ATP 5 mM 30 min, western blot. It is filed as cell-based. Here is the method:
HCT116 cells were seeded in a six-well plate and treated with GSTO1 inhibitors for 24 h. Cells were washed with ice-cold PBS and lysed with a triple detergent lysis buffer supplemented with protease and phosphatase inhibitor cocktail. Lysate was sonicated and centrifuged at 12,000 r.p.m. for 10 min at 4 °C to remove cell debris. Total protein concentration in the supernatant was measured using BCA protein assay kit (Pierce Biotechnology). For IL-1β experiments, THP-1 cells (1 × 10^6 per well) were seeded in a 12-well plate and differentiated overnight with 10 nM phorbol myristate acetate. […] Band intensities were quantified using Image J software. […]
Supplementary Fig. 23. […] (a) ATP-induced IL-1β secretion from LPS-stimulated THP-1 cells was analyzed by ELISA. […] Cytokine secretion level is expressed as a percentage of that released from control cells treated with DMSO. Data are mean readings of duplicate wells. […]
treated with indicated concentrations of C1-27 or GLY (50 µM) for 1.5 h, followed by stimulation with ATP (5 mM) for 30 min. Concentrated supernatant was analyzed by western blotting using anti IL-1β antibody. […] Expression of pro- IL-1β in response to LPS was analyzed by western blotting. […] Representative plots of several gene expression datasets analyzed in Oncomine are shown. […]
(In western blotting, separated proteins are transferred to a membrane and probed.)

The subject of experiment [1] is HCT116 cells. Nature of the experiment: Cell cycle analysis by flow cytometry. It is filed as cell-based, human. Particulars: 5 μM, 24 h. The procedure:
Cells were seeded at a density of 0.5 × 10^6 per well in a six-well plate. After overnight attachment, cells were treated with C1-27 (5 μM) for 24 h and collected using trypsin. Cells were then washed twice with PBS containing 10% serum and fixed with 70% ethanol overnight at −20 °C. Fixed cells were washed twice in PBS containing 10% serum and stained with 50 μg ml^−1 propidium iodide solution containing 100 μg ml^−1 RNase A for 1 h at 37 °C. Cell cycle was analysed on a BD LSR II flow cytometer (BD Biosciences) and data were analysed using ModFit software.
A general note: In flow cytometry, cells or beads pass a laser one at a time.

In experiment [2] the test system is HCT116 cells. Briefly: Caspase 3/7 assay (ApoTox-Glo). The class given is cell-based, human. As to conditions: 24 h. The procedure: HCT116 cells were treated with indicated concentrations of C1-27 for 24 h. Caspase activation was measured using ApoTox-Glo triplex assay reagent according to the manufacturer's recommendation.

On to `CN(C)S(=O)(=O)c1cc(NC(=O)CCl)ccc1Cl` [C1-27], for which growth in the experiment on NCIADR Res was halved (GI50) at 3.7 µM. The IL-1β release result with THP-1 cells was “Dose-dependent inhibition”. In the experiment on HCT116 cells [1], the S-phase population entry is on record as “increase”. For the same compound, the caspases entry in the experiment on HCT116 cells [2] is given as “activation”.
